Data on two compounds can be found in patent publication US20060205716A1, “Microbicidal agents” (priority 2003, published 2006).

One test has as its system Pseudomonas fluorescens. Kind of test: Minimum inhibitory concentration / synergism test with test germ Pseudomonas fluorescens. In kind it is cell-based. To be noted: pure active compound applied on its own. The source says:
The observed synergism of the mixtures according to the invention can be determined by the following mathematical approach (cf. F. C. Kull, P. C. Elisman, H. D. Sylwestrowicz and P. K. Mayer, Appl. Microbiol. 9, 538 (1961): [formula] where • Qa=the amount of component A in the active compound mixture required to achieve the desired effect, i.e. no microbial growth, • QA=the amount of component A which, applied on its own, suppresses the growth of the microorganisms, • Qb=the amount of component B in the active compound mixture which suppresses the growth of the microorganisms, and • […]=the amount of component B which, applied on its own, suppresses the growth of the microorganisms.
A synergistic index of SI<1, in accordance with the above formula, indicates a synergistic effect for the active compound mixture.
The minimum inhibitory concentration of the active compound combinations listed in Table 1 were examined using the test germ Pseudomonas fluorescens

For test [1], the system named is bacteria (Pseudomonas aeruginosa, P. fluorescens, P. oleovorans, P. rubescens, P. stutzeri, Alcaligenes faecalis, Citrobacter freundii, Corynebacterium sp). Kind of test: Preservation of a cooling lubricant emulsion, repeated weekly contamination: bacteria. Particulars: limit <10^6 CFU/g, maximum test duration 10 weeks. An excerpt:
(§1) What was examined was the preserving action of CMC/MIT mixtures according to the invention in a cooling lubricant emulsion (5% mineral oil/emulsifier concentrate/95% water). To this end, biocide-free and perserved samples of a cooling lubricant emulsion were repeatedly, at weekly intervals, exposed to microbiological stress using the following microorganisms:
Bacteria: • Pseudomonas aeruginosa • Pseudomonas fluorescens • Pseudomonas oleovorans • Pseudomonas rubescens • Pseudomonas stutzeri • Alcaligenes faecalis • Citrobacter freundii • Corynebacterium sp
(§2) In each case, the bacteria were added separately from the yeasts/moulds.
The maximum duration of the test was 10 weeks (=10 contaminations), if the following limits were not exceeded during the weekly determination of the number of germs: […]

Test [2] has as its system moulds (Acremonium strictum, Fusarium solani, Geotrichum candidum). Kind of test: Preservation of a cooling lubricant emulsion, repeated weekly contamination: moulds. To be noted: limit <10^3-4 CFU/g, maximum test duration 10 weeks. The method, then:
as §1
Moulds: • Acremonium strictum • Fusarium solani • Geotrichum candidum
as §2
(§3) The maximum duration of the test was 10 weeks (=10 contaminations), if the following limits were not exceeded during the weekly determination of the number of germs:
(§4) yeasts/moulds<10^3-4 CFU/g.

Test [3] concerns yeasts (Rhodotorula rubra). Kind of test: Preservation of a cooling lubricant emulsion, repeated weekly contamination: yeasts. To be noted: limit <10^3-4 CFU/g, maximum test duration 10 weeks. The method, then:
as §1
Yeasts: • Rhodotorula rubra
as §2, §3, §4

[4] abbreviates: 0.15% CMC based on cooling lubricant emulsion.
Where [5] appears, read: 0.01% MIT based on cooling lubricant emulsion.

On to `Cc1cc(O)ccc1Cl` [CMC, p-chloro-m-cresol], for which the “Amount of pure active compounds required to suppress growth (QA, QB)” value with Pseudomonas fluorescens is 150 (QA) ppm. Also, the “number of weeks without colonization: bacteria” value in test [1] (setting [4]) stood at 3 weeks. Further, the “number of weeks without colonization: moulds” value in test [2] (setting [4]) came out at 10 weeks. For the same compound, the “number of weeks without colonization: yeasts” value in test [3] (setting [4]) is listed as 10 weeks.
On to `Cn1sccc1=O` [MIT, 2-methyl-2H-isothiazol-3-one], for which the “Amount of pure active compounds required to suppress growth (QA, QB)” value in the test with Pseudomonas fluorescens is 5 (QB) ppm. The “number of weeks without colonization: bacteria” value in test [1] (setting [5]) came to 8 weeks. Moreover, the “number of weeks without colonization: moulds” value in test [2] (setting [5]) came to 5 weeks. Further, the “number of weeks without colonization: yeasts” value in test [3] (setting [5]) came to 8 weeks.
